Data reported in patent publication US11420970B1 (NOVARTIS AG, priority 2019, dated 2022).
Read-outs that look alike come from different tables or passages of the source.

Columns and labels:
[1] = biological target: NSD2 [1-1365] (Homo sapiens (Human), UniProt O96028); assay: LC-MS/MS-based NSD2 enzymatic assay (SAH production); format: biochemical; settings: read-out: NSD2 IC50
In short: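 Full-length NSD2 [1-1365] (8 nM final) with 1 μM SAM and 400 nM mouse-liver nucleosome in Tris pH 8.0 buffer; inhibitor preincubated 20 min with enzyme/SAM before nucleosome addition. Reaction 90 min at room temperature, TFA-quenched; SAH quantified by LC-MS/MS against d4-SAH internal standard and SAH standard curve.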

[2] = tested on: cellular H3K36me2 level in thyroid carcinoma cell line CGTH-W-1 (NSD2 E1099K); assay: H3K36me2 cellular ELISA assay in CGTH-W-1 line; format: cell-based; settings: Homo sapiens, read-out: H3K36me2 ELISA in CGTH-W-1
Method: H3K36Me2 Cellular ELISA Assay in CGTH-W-1 Line
An ELISA (enzyme-linked immunosorbent assay) based assay was used to test the ability of candidate compound to reduce cellular H3K36me2 level in thyroid carcinoma cell line CGTH-W-1, carrying NSD2 E1099K gain of function mutation. CGTH-W-1 (DSMZ) cells are maintained in RPM11640 media with 10% FBS and 50 U/ml Penicillin-Streptomycin.
Cells were treated with tested compounds at the desired concentration for 72 hours.
(§1) Histone bound plates were washed and blocked with 5% BSA. […] The abundance of H3K36me2 and total H3 was measured by Chemiluminesce on a plate reader. Cell viability was monitored on a parallel seeded plate with CellTiter-Glo reagent (Promega #G7573).

[3] = tested on: cellular H3K36me2 level in multiple myeloma cell line KMS11 (t(4;14)+); assay: H3K36me2 cellular ELISA assay in KMS11-Par line; format: cell-based; settings: Homo sapiens, KMS-11; KMS11-Par line, ELISA, 72 hours; read-out: H3K36me2 ELISA in KMS11-Par
Method: H3K36Me2 Cellular ELISA Assay in KMS11-Par Line
An ELISA (enzyme-linked immunosorbent assay) based assay was used to test the ability of candidate compound to reduce cellular H3K36me2 level in multiple myeloma cell line KMS11 (t(4;14)+). KMS11 (Horizon Discovery Ltd.) cells are maintained in RPM11640 media with 12.5% FBS and 50 U/ml Penicillin-Streptomycin. For assay compound treatment, single cell suspension was prepared in Opti-MEM supplemented with B-27 and N2 supplement (Invitrogen 11058-021, 17504-044, 17502-048) for ELISA and in maintenance media for cellTiter Glo (CTG) viability assay. One day prior to cell treatment, 1,250 KMS11 cells were seeded into 384-well Greiner CellStar TC plate (Greiner #781086) at the final volume of 30 μL/well.
Cells were treated with tested compounds at the desired concentration for 72 hours. Crude histone lysate was extracted by 0.4M HCl following neutralization by 0.5M Sodium phosphate, dibasic (Na2HPO4), pH ˜12.5. Equal amount of histone lysate was loaded to Corning 384-well high biding plate (Corning #3577, black) for H3K36m2 and to Thermo 384-well high binding Nunc plate (Thermo #460372, white) for total H3.
as §1

Sequence of NSD2 [1-1365] (O96028 whole entry): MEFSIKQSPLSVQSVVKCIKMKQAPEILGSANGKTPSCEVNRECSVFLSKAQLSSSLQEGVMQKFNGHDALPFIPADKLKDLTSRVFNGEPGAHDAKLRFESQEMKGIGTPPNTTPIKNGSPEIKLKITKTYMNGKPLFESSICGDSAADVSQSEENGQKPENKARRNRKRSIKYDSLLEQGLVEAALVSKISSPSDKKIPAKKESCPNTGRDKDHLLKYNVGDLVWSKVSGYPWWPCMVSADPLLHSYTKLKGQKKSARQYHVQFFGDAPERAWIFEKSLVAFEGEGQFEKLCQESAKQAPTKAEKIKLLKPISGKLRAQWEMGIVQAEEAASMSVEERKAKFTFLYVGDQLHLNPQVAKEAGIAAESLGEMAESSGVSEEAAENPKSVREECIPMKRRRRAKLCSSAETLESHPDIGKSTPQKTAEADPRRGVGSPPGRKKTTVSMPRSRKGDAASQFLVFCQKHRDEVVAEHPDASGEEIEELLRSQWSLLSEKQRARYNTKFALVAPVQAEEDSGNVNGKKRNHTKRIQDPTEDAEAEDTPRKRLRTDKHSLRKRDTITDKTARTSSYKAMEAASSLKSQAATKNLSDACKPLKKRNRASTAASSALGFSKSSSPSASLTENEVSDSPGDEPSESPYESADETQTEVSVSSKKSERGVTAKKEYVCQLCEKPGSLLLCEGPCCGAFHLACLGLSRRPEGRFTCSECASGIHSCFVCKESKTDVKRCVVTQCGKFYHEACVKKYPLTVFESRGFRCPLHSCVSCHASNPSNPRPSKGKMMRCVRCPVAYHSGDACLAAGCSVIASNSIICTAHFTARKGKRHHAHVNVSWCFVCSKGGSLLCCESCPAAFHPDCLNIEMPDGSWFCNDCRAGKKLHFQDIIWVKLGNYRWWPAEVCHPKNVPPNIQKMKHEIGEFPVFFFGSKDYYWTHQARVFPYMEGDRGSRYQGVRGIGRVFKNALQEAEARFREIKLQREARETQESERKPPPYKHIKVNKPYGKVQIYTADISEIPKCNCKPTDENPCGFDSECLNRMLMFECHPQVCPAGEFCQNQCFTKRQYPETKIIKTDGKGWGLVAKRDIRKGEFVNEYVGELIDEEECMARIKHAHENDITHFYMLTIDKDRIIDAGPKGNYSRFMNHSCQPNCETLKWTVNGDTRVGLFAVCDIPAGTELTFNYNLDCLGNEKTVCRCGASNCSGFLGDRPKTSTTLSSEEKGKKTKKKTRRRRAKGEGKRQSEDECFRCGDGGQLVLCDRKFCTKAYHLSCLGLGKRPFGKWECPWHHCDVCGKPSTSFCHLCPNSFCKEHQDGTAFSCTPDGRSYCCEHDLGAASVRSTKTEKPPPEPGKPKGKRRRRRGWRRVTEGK

Row | SMILES | IC50 [1] [nM] | IC50 ([2]; CGTH-W-1, 72 h) [nM] | IC50 ([2]; CGTH-W-1 line, ELISA, 72 hours) [nM] | IC50 [3] [nM]
1 | COc1cccc([C@@]2(N)CCCN(c3cnc(-c4ccc(F)c(F)c4)cc3Cn3cnc4c(N)ncnc43)C2)n1 [Example 178, (R)-9-((5-(3-amino-3-(6-methoxypyridin-2-yl)piperidin-1-yl)-2-(3,4-difluorophenyl)pyridin-4-yl)methyl)-9H-purin-6-amine] | 1 to 10 | 230 |  | 
2 | Nc1ncnc2c1ncn2Cc1cc(-c2ccc3c(c2)COC3)ncc1N1CCCC(N)(c2cccc(Cl)n2)C1 (stereo not shown) [Example 179, 9-((5-(3-amino-3-(6-chloropyridin-2-yl)piperidin-1-yl)-2-(1,3-dihydroisobenzofuran-5-yl)pyridin-4-yl)methyl)-9H-purin-6-amine] | 10 to 1000 | 1420 |  | 
3 | Nc1ncnc2c1ncn2Cc1cc(-c2ccc(OC(F)F)cc2)ncc1N1CCCC(N)(c2cccc(Cl)n2)C1 (stereo not shown) [Example 184, 9-((5-(3-amino-3-(6-chloropyridin-2-yl)piperidin-1-yl)-2-(4-(difluoromethoxy)phenyl)pyridin-4-yl)methyl)-9H-purin-6-amine] | 10 to 1000 | 592 |  | 
4 | Nc1ncnc2c1ncn2Cc1cc(-c2ccc3c(c2)OCO3)ncc1N1CCCC(N)(c2cccc(Cl)n2)C1 (stereo not shown) [Example 186, 9-((5-(3-amino-3-(6-chloropyridin-2-yl)piperidin-1-yl)-2-(benzo[d][1,3]dioxo1-5-yl)pyridin-4-yl)methyl)-9H-purin-6-amine] | 10 to 1000 | 967 |  | 
5 | NC(=O)c1cccc(C2(N)CCCN(c3cnc(-c4ccc(F)c(F)c4)cc3Cn3cnc4c(N)ncnc43)C2)n1 (stereo not shown) [Example 195, 6-(3-amino-1-(4-((6-amino-9H-purin-9-yl)methyl)-6-(3,4-difluorophenyl)pyridin-3-yl)piperidin-3-yl)picolinamide] | 10 to 1000 | 4920 |  | 
6 | N#Cc1cccc(C2(N)CCCN(c3cnc(-c4ccc(F)c(F)c4)cc3Cn3cnc4c(N)ncnc43)C2)n1 (stereo not shown) [Example 208, 6-(3-amino-1-(4-((6-amino-9H-purin-9-yl)methyl)-6-(3,4-difluorophenyl)pyridin-3-yl)piperidin-3-yl)picolinonitrile] | 10 to 1000 | 2780 |  | 
7 | Nc1ncnc2c1ncn2Cc1cc(-c2ccc(F)c(F)c2)ncc1N1CCC[C@](N)(c2ccc(OC(F)F)cn2)C1 [Example 209, (R)-9-((5-(3-amino-3-(5-(difluoromethoxy)pyridin-2-yl)piperidin-1-yl)-2-(3,4-difluorophenyl)pyridin-4-yl)methyl)-9H-purin-6-amine] | 1 to 10 |  | 324 | 
8 | COc1ccc(-c2cc(Cn3cnc4c(N)ncnc43)c(N3CCC[C@](N)(c4cccc(Cl)n4)C3)cn2)cc1 [Example 211, (R)-9-((5-(3-amino-3-(6-chloropyridin-2-yl)piperidin-1-yl)-2-(4-methoxyphenyl)pyridin-4-yl)methyl)-9H-purin-6-amine] | 1 to 10 | 387 |  | 
9 | Nc1ncnc2c1ncn2Cc1cc(-c2ccc(F)c(F)c2)ncc1N1CCC[C@](N)(c2cccc(O)n2)C1 [Example 217, (R)-6-(3-amino-1-(4-((6-amino-9H-purin-9-yl)methyl)-6-(3,4-difluorophenyl)pyridin-3-yl)piperidin-3-yl)pyridin-2-ol] | 1 to 10 | 2240 |  | 
10 | Nc1ncnc2c1ncn2Cc1cc(-c2ccc(F)cc2)ncc1N1CCC[C@](N)(c2ccc(F)c(C(F)F)n2)C1 [Example 218, (R)-9-((5-(3-amino-3-(6-(difluoromethyl)-5-fluoropyridin-2-yl)piperidin-1-yl)-2-(4-fluorophenyl)pyridin-4-yl)methyl)-9H-purin-6-amine] | 10 to 1000 | 101 |  | 
11 | Cn1ncc2cc(-c3cc(Cn4cnc5c(N)ncnc54)c(N4CCCC(N)(c5cccc(Cl)n5)C4)cn3)ccc21 (stereo not shown) [Example 225, 9-((5-(3-amino-3-(6-chloropyridin-2-yl)piperidin-1-yl)-2-(1-methyl-1H-indazol-5-yl)pyridin-4-yl)methyl)-9H-purin-6-amine] | 10 to 1000 | 1960 |  | 
12 | Nc1ncnc2c1ncn2Cc1cc(-c2ccc(OC(F)F)c(F)c2)ncc1N1CCCC(N)(c2cccc(Cl)n2)C1 (stereo not shown) [Example 228, 9-((5-(3-amino-3-(6-chloropyridin-2-yl)piperidin-1-yl)-2-(4-(difluoromethoxy)-3-fluorophenyl)pyridin-4-yl)methyl)-9H-purin-6-amine] | 10 to 1000 | 611 |  | 
13 | Nc1ncnc2c1ncn2Cc1cc(-c2ccc(F)c(F)c2)ncc1N1CCCC(N)(c2cccnn2)C1 (stereo not shown) [Example 253, 9-((5-(3-amino-3-(pyridazin-3-yl)piperidin-1-yl)-2-(3,4-difluorophenyl)pyridin-4-yl)methyl)-9H-purin-6-amine] | 10 to 1000 | 357 |  | 
14 | Cn1cc(C2(N)CCCN(c3cnc(-c4ccc(F)c(F)c4)cc3Cn3cnc4c(N)nccc43)C2)cn1 (stereo not shown) [Example 270, 1-((5-(3-amino-3-(1-methyl-1H-pyrazol-4-yl)piperidin-1-yl)-2-(3,4-difluorophenyl)pyridin-4-yl)methyl)-1H-imidazo[4,5-c]pyridin-4-amine] | 10 to 1000 |  |  | 15300
15 | Nc1ncnc2c1ncn2Cc1cc(-c2ccc(F)c(F)c2)ncc1N1CCCC(N)(c2cccnc2)C1 (stereo not shown) [Example 271, 9-((5-(3-amino-3-(pyridin-3-yl)piperidin-1-yl)-2-(3,4-difluorophenyl)pyridin-4-yl)methyl)-9H-purin-6-amine] | > 1000 |  |  | 33300
16 | CC(C)n1ccc([C@@]2(N)CCCN(c3cnc(-c4ccc(F)cc4)cc3Cn3cnc4c(N)ncnc43)C2)n1 [Example 274, (R)-9-((5-(3-amino-3-(1-isopropyl-1H-pyrazol-3-yl)piperidin-1-yl)-2-(4-fluorophenyl)pyridin-4-yl)methyl)-9H-purin-6-amine] | 1 to 10 |  |  | 5540
17 | CCn1ccc(C2(N)CCCN(c3cnc(-c4ccc(F)cc4)cc3Cn3cnc4c(N)nccc43)C2)n1 (stereo not shown) [Example 277, 1-((5-(3-amino-3-(1-ethyl-1H-pyrazo1-3-yl)piperidin-1-yl)-2-(4-fluorophenyl)pyridin-4-yl)methyl)-1H-imidazo[4,5-c]pyridin-4-amine] | 10 to 1000 |  |  | 2200
18 | Nc1ncnc2c1ncn2Cc1cc(-c2ccc(F)c(F)c2)ncc1N1CCCC(N)(c2ccn(C3CC3)n2)C1 (stereo not shown) [Example 278, 9-((5-(3-amino-3-(1-cyclopropyl-1H-pyrazol-3-yl)piperidin-1-yl)-2-(3,4-difluorophenyl)pyridin-4-yl)methyl)-9H-purin-6-amine] | 1 to 10 |  |  | 475
19 | Nc1nccc2c1ncn2Cc1cc(-c2ccc(F)cc2)ncc1N1CCCC(N)(c2ccn(C3CC3)n2)C1 (stereo not shown) [Example 280, 1-((5-(3-amino-3-(1-cyclopropyl-1H-pyrazol-3-yl)piperidin-1-yl)-2-(4-fluorophenyl)pyridin-4-yl)methyl)-1H-imidazo[4,5-c]pyridin-4-amine] | 1 to 10 |  |  | 1490
20 | Nc1ncnc2c1ncn2Cc1cc(-c2ccc(F)c(F)c2)ncc1N1CCCC(N)(C=C(F)F)C1 (stereo not shown) [Example 294, 9-((5-(3-amino-3-(2,2-difluorovinyl)piperidin-1-yl)-2-(3,4-difluorophenyl)pyridin-4-yl)methyl)-9H-purin-6-amine] | 10 to 1000 |  |  | 9440
21 | Nc1ncnc2c1ncn2Cc1cc(-c2ccc(F)c(F)c2)ncc1N1CC[C@@H](O)[C@](N)(c2cccc(Cl)n2)C1 [Example 302, (3R,4R)-3-amino-1-(4-((6-amino-9H-purin-9-yl)methyl)-6-(3,4-difluorophenyl)pyridin-3-yl)-3-(6-chloropyridin-2-yl)piperidin-4-ol] | 10 to 1000 |  |  | 563
22 | COCC1CC(N)CN(c2cnc(-c3ccc(F)c(F)c3)cc2Cn2cnc3c(N)ncnc32)C1 (stereo not shown) [Example 308, 9-((5-(3-amino-5-(methoxymethyl)piperidin-1-yl)-2-(3,4-difluorophenyl)pyridin-4-yl)methyl)-9H-purin-6-amine] | 10 to 1000 |  |  | 27500
23 | CN(C)C(=O)CC[C@@]1(N)CCCN(c2cnc(-c3ccc(F)c(F)c3)cc2Cn2cnc3c(N)ncnc32)C1 [Example 322, (S)-3-(3-amino-1-(4-((6-amino-9H-purin-9-yl)methyl)-6-(3,4-difluorophenyl)pyridin-3-yl)piperidin-3-yl)-N,N-dimethylpropanamide] | 10 to 1000 |  |  | > 33700
